Measured values: the Kinase Knowledgebase extract (Sharma et al. 2016)

Biological target: EGFR (UniProt P00533)
Sequence (P00533 whole entry, looked up): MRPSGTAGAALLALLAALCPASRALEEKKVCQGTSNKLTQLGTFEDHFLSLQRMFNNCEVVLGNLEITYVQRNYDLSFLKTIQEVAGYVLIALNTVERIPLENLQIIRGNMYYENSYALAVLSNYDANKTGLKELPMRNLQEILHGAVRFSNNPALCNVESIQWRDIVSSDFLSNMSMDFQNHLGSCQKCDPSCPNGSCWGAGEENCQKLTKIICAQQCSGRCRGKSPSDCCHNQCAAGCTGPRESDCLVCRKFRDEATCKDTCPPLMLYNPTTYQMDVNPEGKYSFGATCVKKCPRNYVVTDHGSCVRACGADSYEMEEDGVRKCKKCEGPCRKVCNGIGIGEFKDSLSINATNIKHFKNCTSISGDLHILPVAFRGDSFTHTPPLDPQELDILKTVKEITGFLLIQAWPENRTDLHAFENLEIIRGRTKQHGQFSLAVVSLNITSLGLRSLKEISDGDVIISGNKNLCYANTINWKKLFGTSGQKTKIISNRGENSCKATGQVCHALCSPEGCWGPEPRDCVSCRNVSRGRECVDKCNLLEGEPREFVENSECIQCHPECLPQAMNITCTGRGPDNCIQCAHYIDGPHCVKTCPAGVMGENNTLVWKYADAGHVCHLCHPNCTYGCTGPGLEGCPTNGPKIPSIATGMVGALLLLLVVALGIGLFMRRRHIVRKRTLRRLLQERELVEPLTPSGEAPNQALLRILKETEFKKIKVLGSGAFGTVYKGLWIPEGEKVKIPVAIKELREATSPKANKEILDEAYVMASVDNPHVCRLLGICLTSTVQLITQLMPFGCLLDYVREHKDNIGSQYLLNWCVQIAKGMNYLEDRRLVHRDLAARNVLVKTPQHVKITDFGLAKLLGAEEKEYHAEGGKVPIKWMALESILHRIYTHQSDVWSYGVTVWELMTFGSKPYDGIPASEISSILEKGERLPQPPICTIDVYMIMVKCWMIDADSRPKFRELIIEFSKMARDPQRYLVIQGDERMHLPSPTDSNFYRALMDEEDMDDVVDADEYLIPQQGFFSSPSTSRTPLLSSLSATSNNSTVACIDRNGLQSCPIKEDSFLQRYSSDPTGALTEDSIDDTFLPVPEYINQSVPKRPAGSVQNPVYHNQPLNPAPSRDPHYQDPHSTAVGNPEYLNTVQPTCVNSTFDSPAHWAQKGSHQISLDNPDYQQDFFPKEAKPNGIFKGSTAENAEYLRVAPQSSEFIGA

Row | IC50 | Structure (SMILES)
1 | < 5 nM | Oc1ccc(-c2cc3c(Nc4cccc(Cl)c4)ncnc3[nH]2)cc1
2 | < 5 nM | CCOC(=O)c1ccc(-c2cc3c(Nc4cccc(Cl)c4)ncnc3[nH]2)cc1
3 | < 5 nM | Nc1cccc(-c2cc3c(Nc4cccc(Cl)c4)ncnc3[nH]2)c1
4 | < 5 nM | Oc1cccc(-c2cc3c(Nc4cccc(Cl)c4)ncnc3[nH]2)c1
5 | 1250 nM | Cc1[nH]c2ncnc(Nc3cccc(O)c3)c2c1C
6 | 84 nM | Clc1cccc(Nc2ncnc3[nH]nc(Nc4cccc(Cl)c4)c23)c1
7 | < 5 nM | O=C(O)c1ccc(-c2cc3c(Nc4cccc(Cl)c4)ncnc3[nH]2)cc1
8 | < 5 nM | Nc1ccc(-c2cc3c(Nc4cccc(Cl)c4)ncnc3[nH]2)cc1
9 | 10 nM | Cc1c(-c2ccccc2)[nH]c2ncnc(Nc3cccc(Cl)c3)c12

Continued, compound first:

Row | Structure (SMILES) | IC50
10 | CCN(CC)CCOc1ccc(Nc2ncc3cc(-c4c(Cl)cccc4Cl)c(NC(=O)NC(C)(C)C)nc3n2)cc1 | 24 nM
11 | Brc1cccc(Nc2nccc3ccccc23)c1 | > 100000 nM
12 | Cn1c(=O)c(-c2c(Cl)cccc2Cl)cc2cnc(N)nc21 | 5600 nM
13 | Brc1cccc(Nc2ccnc3ccccc23)c1 | 5500 nM
14 | COc1cc2nc(C)nc(Nc3cccc(Br)c3)c2cc1OC | > 10000 nM
15 | Brc1cccc(Nc2ncnc3ccccc23)c1 | 27 nM
16 | Cc1[nH]c2ncnc(Nc3cccc(C(=O)O)c3)c2c1C | 16300 nM
17 | CN(C)c1ncc2cc(-c3c(Cl)cccc3Cl)c(=O)n(C)c2n1 | 50000 nM
18 | COc1cc2nc(N)nc(Nc3cccc(Br)c3)c2cc1OC | 463 nM
19 | Cc1[nH]c2ncnc(Nc3cccc(Br)c3)c2c1C | 27 nM
